Experimental data from patent US20070212428A1, “METHODS AND COMPOSITIONS FOR TREATING MOOD DISORDER” (MOOD MANAGEMENT SCIENCES, INC., priority 2004, published 2007).

What was measured:
[1] = system: treatment resistant depression; assay type: in vivo, human; conditions: 150 mg titrated up to 225 mg
[2] = system: norepinephrine neuronal reuptake; conditions: cited from earlier work
[3] = system: dopamine neuronal reuptake; conditions: cited from earlier work
[4] = cited from earlier work; for elimination half-life: plasma
[5] = system: central presynaptic a2 adrenergic inhibitory autoreceptors and heteroreceptors; conditions: cited from earlier work
[6] = system: serotonin 5-HT2 and 5-HT3 receptors; conditions: cited from earlier work
[7] = system: 5-HT1A and 5-HT1B receptors; conditions: cited from earlier work
histamine H1 receptor = histamine H1 receptor (Homo sapiens, UniProt P35367); conditions: cited from earlier work
[8] = system: peripheral al adrenergic and muscarinic receptors; conditions: cited from earlier work
[9] = system: treatment resistant depression; experiment: Example 11: case, treatment resistant depression; assay type: in vivo, human; conditions: under prior psychiatrist
monoamine oxidase = conditions: cited from earlier work
anxiety and depression = conditions: human, in vivo; cited from earlier work

histamine H1 receptor, sequence (P35367 whole entry, species assumed): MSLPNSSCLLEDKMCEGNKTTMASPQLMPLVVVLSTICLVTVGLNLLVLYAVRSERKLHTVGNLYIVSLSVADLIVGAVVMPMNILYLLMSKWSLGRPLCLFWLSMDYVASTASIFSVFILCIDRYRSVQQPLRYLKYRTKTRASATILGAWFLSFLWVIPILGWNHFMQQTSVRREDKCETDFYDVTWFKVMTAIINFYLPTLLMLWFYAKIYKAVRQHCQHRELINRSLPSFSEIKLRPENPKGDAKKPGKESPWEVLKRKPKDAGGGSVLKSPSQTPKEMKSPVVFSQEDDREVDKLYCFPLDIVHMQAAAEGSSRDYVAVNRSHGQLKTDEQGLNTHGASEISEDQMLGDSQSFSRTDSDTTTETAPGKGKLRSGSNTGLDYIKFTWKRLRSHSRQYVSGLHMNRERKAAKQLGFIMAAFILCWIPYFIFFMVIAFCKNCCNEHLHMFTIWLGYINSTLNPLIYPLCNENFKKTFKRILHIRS

In the case of `CN[C@H]1CC[C@@H](c2ccc(Cl)c(Cl)c2)c2ccccc21.Cl` [sertraline, (1S-cis)-4-(3,4-dichlorophenyl)-1,2,3,4-tetrahydro-N-methyl-1-naphthylamine hydrochloride], the “response of first episode of Treatment Resistant Depression” value [1] is listed as “partial response”, the “effect on norepinephrine reuptake (in words)” value [2] is listed as “weak effects” and the “effect on dopamine reuptake (in words)” value [3] is listed as “weak effects”. For the same molecule, the “reduction of elimination in elderly patients” value ([4]; elderly patients) was “approximately 40%” and the elimination half-life [4] was “about 26 hours”.

For `CN1CCN2c3ncccc3Cc3ccccc3C2C1` (racemic) [mirtazapine, 1,2,3,4,10,14b-hexahydro-2-mehtylpryazino [2.1-a] pyrido [2,3-c] benzazepine], the functional activity [5] is given as “antagonist”, the functional activity [6] is given as “potent antagonist” and the affinity [7] is given as “no significant affinity”. The functional activity (histamine H1 receptor) was “potent antagonist” and the functional activity [8] was “moderate antagonist”.

In the case of `CC(NC(C)(C)C)C(=O)c1cccc(Cl)c1.Cl` (racemic) [bupropion, (±)-1-(3-chlorophenyl)-2-[(1,1-dimethylethyl)amino]-1-propanone hydrochloride], the “symptomatic success in MDD, first episode” value [9] is listed as “modest symptomatic success”, the “effect on norepinephrine reuptake (in words)” value [2] is listed as “relatively weak inhibitor” and the “effect on dopamine reuptake (in words)” value [3] is listed as “relatively weak inhibitor”. For the same molecule, the “inhibition of monoamine oxidase” value (monoamine oxidase) was “does not inhibit” and the elimination half-life [4] was “approximately 21 hours”.

For `CNCCCC1c2ccccc2C=Cc2ccccc21.Cl` [protriptyline, N-methyl-5H-dibenzo[a,d]-cycloheptene-5-propanamine hydrochloride], the “time to clinical effect” value (anxiety and depression) is listed as “one week”, the “time to significant plasma levels” value ([4]; human, in vivo) is listed as ≤ 2 h and the “oral absorption (in words)” value ([4]; oral administration) is listed as “well absorbed”.
